# Columns and labels:
# [1] = tested on: adherent cells; experiment: Cytoskeletal stiffness of adherent cells treated with CytoD; assay type: cell-based
# [2] = tested on: NIH 3T3 cell line; experiment: Brillouin flow cytometry of CytoD-treated suspended cells (setup of FIG. 12); assay type: cell-based
# Text: FIG. 12 illustrates an exemplary embodiment of the current invention resulting from a novel combination of an epi-detection path to excite/collect Brillouin signal, a monitoring imaging modality, a microfluidic device (or other cell plating device), a Brillouin spectrometer and a computer with software that links all of these sub-components. A first incoming illuminating beam 1210 is focused onto one spot inside a microfluidic device 1230 by using a beam splitter 1211 and an objective lens 1212. The illuminating laser beam 1210 may be a laser beam. In one embodiment, the first incoming laser beam 1210 is focused into spot of 1 to 10 μm. The backward Brillouin scattering light is collected by the same objective lens 1212 and guided to a Brillouin spectrometer 1215 via the beam splitter 1211, a reflected mirror 1213, and a coupling lens 1214. The Brillouin spectrometer 1215 is a device that can measure the Brillouin frequency shift accurately. One example of the Brillouin spectrometer 1215 is disclosed in Scarcelli Polachech 2015 Nature Methods Above the microfluidic device 1230, there is a bright-field microscope consisting of a second light source 1220 (usually has a different wavelength from laser beam 1210), a beam splitter 1221, a tube lens 1222, an objective lens 1224, and a 2D image recording device 1225. The purpose of this microscope setup is to monitor the flowing status of the cells inside the microfluidic device 1230. In one embodiment, the microscope setup further contains a spectral filter 1223, which blocks the light from the laser beam 1210, but allows the light from a light source 1220 to pass. […]
# In yet another embodiment, a second approach, named as image-guided alignment, may be used to align the flowing cell to the focused spot of the laser beam 1210. […] Suppose a cell 1630 is flowing along y-direction (from top to bottom), once it appears in the field of view, its location (x1) and the horizontal shift (x0-x1) with respect to the focused spot 1620 can be determined. […] In this case, all of the measured data points were used to plot the histogram graph in FIG. 17a. […]
# [3] = tested on: cells (nucleus); experiment: Brillouin and fluorescence 2D imaging of cells with and without CytoD treatment (setup of FIG. 21); assay type: cell-based; details: treated vs control group, FIGS. 23a, 23b
# Protocol: FIG. 21 illustrates a Brillouin spectroscopy setup according to another embodiment of the current invention. In this embodiment, a second optical modality is added to acquire a co-registered confocal fluorescence image of the cell simultaneously when the cell is probed by the Brillouin beam. The second optical modality may comprise a dichroic mirror 2127, a tube lens 2122, a pinhole mask 2126, and a photo-detector 2125. The dichroic mirror 2127 will let the laser beam 2110 and the Brillouin signal pass through but reflects the fluorescence light. Compared with the bright-field microscope of FIG. 12, the confocal configuration has better transverse and lateral optical resolution by rejecting fluorescence light from the out-of-focus plane. In practice, fluorescently labelled cells can be used to identify a sub-region of a cell (e.g., nucleus) and the focused spot of laser beam 2110 can be used to directly excite fluorescence emission. Then, the confocal configuration is used to detect the fluorescence emission light by a camera 2125. Based on the intensity of the fluorescence emission light, one can accurately determine the location of the focused spot (and thus the Brillouin signal) inside the cell so that the Brillouin signal can be assigned to a targeted point. […]
# As an example of classifying cells using the embodiment of FIG. 21, effect of CytoD on the cells was analyzed. […]
# [4] = tested on: NIH 3T3 fibroblast cells; experiment: Inhibition of actin filament, Brillouin-based label-free flow cytometry; assay type: cell-based; details: cytoD 2 ug/mL for 10 minutes; 232 treated cells; FIG. 33B
# Protocol: (§1) Two drugs, cytochalasin D (cytoD) and nocodazole (Noco), were applied to 3T3 cells to inhibit the actin filament and microtubules filament, respectively. NIH 3T3 fibroblast cells purchased from American Type Culture Collection (ATCC) were used for all experiments. Cells were cultured following standard protocols. For inhibitation of microtubules filament, cells were first treated by Noco of 1 ug/mL for 30 minutes, and then harvested by trypsinization and re-suspended in a solution of phosphate-buffered saline (PBS) without Mg^2+ and Ca^2+ at a concentration of ˜0.1 million cells per ML before measurement. Due to the low concentration, few cells were captured by flowing. Instead, a single cell in suspension was imaged after it was delivered into the microfluidic devices. […] The Brillouin shift of the treated cell 3312 is 0.29 GHz higher, indicating a distinct stiffening of its nucleus. Considering the sensitivity of the instrument is ˜0.01 GHz, microtubules filament-inhibited cells were easily identified from normal cells based on the mechanical stiffening of the nucleus.
# For inhibition of actin filament, cells were first treated by cytoD of 2 ug/mL for 10 minutes, and then harvested by trypsinization and re-suspended in a solution of phosphate-buffered saline (PBS) without Mg^2+ and Ca^2+ at a concentration of ˜1 million cells per mL before measurement. […]
# [5] = tested on: F-actin; details: attached cells treated with CytoD; cited from earlier work
# [6] = tested on: NIH 3T3 fibroblast cells; experiment: Inhibition of microtubules filament, Brillouin imaging of single suspended cell; assay type: cell-based; details: Noco 1 ug/mL for 30 minutes; single cell in suspension; FIG. 33A
# Protocol: as §1
# [7] = tested on: NIH 3T3 cell line; experiment: Chromatin decondensation experiment, Brillouin mechanical cytometry of TSA-treated cells; assay type: cell-based; details: TSA 100 ng/mL, 2 hours
# Text: A vertically-polarized laser beam 2628 is first reflected by the polarized beam splitter (PBS) 2634 and focused into the center of a microfluidic channel 2624 from the bottom side by objective lens 2632. In one embodiment, a 11-mW single-mode linearly-polarized 532-nm cw laser (Torus, Laser Quantum) was used as a light source to excite Brillouin scattering. Due to the quarter-wave plate (QWP) 2626, the focused beam was circularly polarized. The backward scattered light was collected by the same objective lens 2632 and passed through the QWP 2626 again. The circularly-polarized light is eventually turned into horizontally-polarized one which is totally transmitted by the PBS 2634. […] The location of the focused Brillouin beam was pre-determined by removing the long-pass filter (LP) 2612. […] In one embodiment, a CCD camera 2610 and the Brillouin spectrometer 2638 were synchronized by a LabVIEW program so that the spectrometer's data can be assigned to the corresponding location of the measured sample. […] When a cell passes through the beam location (white dots indicated by the arrows), its Brillouin shift is measured. […]
# Cells are cultured and re-suspended in a solution of phosphate-buffered saline (PBS) without Mg2+ and Ca2+. […] Cells without washing are then ready for fluorescence experiment. […]
compound,measurement,setting,value
"C=C1[C@@H](C)[C@H]2[C@H](Cc3ccccc3)NC(=O)[C@]23[C@H](OC(C)=O)/C=C/[C@@](C)(O)C(=O)[C@@H](C)C/C=C/[C@H]3[C@@H]1O [CytoD, cytochalasin D]",cytoskeletal stiffness,[1],markedly reduced
same,Brillouin frequency shift of cytoplasm peaks,"[2]; NIH 3T3, suspended after trypsinization, CytoD 0.5, 2, 5 ug/ml, FIGS. 20b-20e",almost no change
same,stiffness of the cells (average Brillouin frequency shift over the whole cell),"[2]; NIH 3T3, suspended in PBS, CytoD 0.5, 2 and 5 ug/ml, FIG. 20a",dose dependent effect
same,Brillouin frequency shift of nucleus peak (nucleus stiffness),"[2]; NIH 3T3, suspended, increasing dose of CytoD 0.5, 2, 5 ug/ml, FIGS. 20b-20e",nucleus is getting softer
same,nucleus stiffness (Brillouin signal vs fluorescence intensity),[3],much softened
same,"decrease of averaged Brillouin shift of the nucleus, treated group vs control group",[4],0.12 GHz
same,F-actin,[5],dramatically reduced
"COC(=O)Nc1nc2ccc(C(=O)c3cccs3)cc2[nH]1 [Noco, nocodazole]","increase of averaged Brillouin shift of the nucleus, treated cell vs control",[6],0.29 GHz
"CC(/C=C/C(=O)NO)=C\[C@@H](C)C(=O)c1ccc(N(C)C)cc1 [TSA, trichostatin A]",Brillouin shift of the nucleus after treatment,"[7]; control nucleus 7.80 GHz, 356 treated cells",7.71 GHz
same,Brillouin shift of the cytoplasm after treatment,[7]; same as control,7.56 GHz
